Results as given in the supplement of paper PMC10307832.

Assays:
Test in all cases: relative viability (nuclei count vs DMSO), 5 days (fraction); higher = more cells survive
[1] = system: NCI-H23
Procedure, shortened: (§1)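 Relative viability equals treated-well nuclei counts divided by vehicle-well nuclei counts. Counts came from 4× images of lung cancer cell lines grown in 1536-well plates for 5 days after pin-tool dosing on the day after seeding. Dosing used one drug alone or a fixed anchor-drug dose plus five library-drug doses (not always all listed) in √10 steps, and values are medians of duplicate plates.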

[2] = system: NCI-H2342
Procedure, shortened: as §1

[3] = system: LK-2
Procedure, shortened: as §1

[4] = system: LU99A
Procedure, shortened: as §1

[5] = system: EKVX
Procedure, shortened: as §1

[6] = system: NCI-H322M
Procedure, shortened: as §1

[7] = system: RERF-LC-KJ
Procedure, shortened: as §1

[8] = system: NCI-H1666
Procedure, shortened: as §1

[9] = system: EMC-BAC-2
Procedure, shortened: as §1

[10] = system: NCI-H1975
Procedure, shortened: as §1

[11] = system: EPLC-272H
Procedure, shortened: as §1

[12] = system: HCC-827
Procedure, shortened: as §1

[13] = system: LCLC-103H
Procedure, shortened: as §1

[14] = system: HCC-78
Procedure, shortened: as §1

[15] = system: ChaGo-K-1
Procedure, shortened: as §1

[16] = system: NCI-H2126
Procedure, shortened: as §1

[17] = system: LXF-289
Procedure, shortened: as §1

[18] = system: PC-14
Procedure, shortened: as §1

[19] = system: NCI-H2405
Procedure, shortened: as §1

[20] = system: SW 900
Procedure, shortened: as §1

CCN(CC)CCCCNc1ncc2cc(-c3cc(OC)cc(OC)c3)c(NC(=O)NC(C)(C)C)nc2n1 + NC(=O)Nc1cc(-c2cccc(F)c2)sc1C(=O)N[C@H]1CCCNC1 [AZD7762] (partner 0.2 µM)
relative viability ([1]; first compound 0.01 µM): 0.229
relative viability ([1]; first compound 0.03162 µM): 0.352
relative viability ([1]; first compound 0.1 µM): 0.323
relative viability ([1]; first compound 0.3162 µM): 0.207
relative viability ([1]; first compound 1 µM): 0.172
relative viability ([2]; first compound 0.01 µM): 0.44
relative viability ([2]; first compound 0.03162 µM): 0.511
relative viability ([2]; first compound 0.1 µM): 0.482
relative viability ([2]; first compound 0.3162 µM): 0.558
relative viability ([2]; first compound 1 µM): 0.485
relative viability ([3]; first compound 0.01 µM): 0.471
relative viability ([3]; first compound 0.03162 µM): 0.394
relative viability ([3]; first compound 0.1 µM): 0.374
relative viability ([3]; first compound 0.3162 µM): 0.276
relative viability ([3]; first compound 1 µM): 0.197
relative viability ([4]; first compound 0.01 µM): 0.325
relative viability ([4]; first compound 0.03162 µM): 0.486
relative viability ([4]; first compound 0.1 µM): 0.323
relative viability ([4]; first compound 0.3162 µM): 0.35
relative viability ([4]; first compound 1 µM): 0.289
relative viability ([5]; first compound 0.03162 µM): 0.585
relative viability ([5]; first compound 0.1 µM): 0.643
relative viability ([5]; first compound 0.3162 µM): 0.723
relative viability ([5]; first compound 1 µM): 0.709
relative viability ([6]; first compound 0.01 µM): 0.578
relative viability ([6]; first compound 0.03162 µM): 0.52
relative viability ([6]; first compound 0.1 µM): 0.59
relative viability ([6]; first compound 0.3162 µM): 0.728
relative viability ([6]; first compound 1 µM): 0.559
relative viability ([7]; first compound 0.01 µM): 0.919
relative viability ([7]; first compound 0.03162 µM): 1.04
relative viability ([7]; first compound 0.1 µM): 0.983
relative viability ([7]; first compound 0.3162 µM): 1.28
relative viability ([7]; first compound 1 µM): 1.1
relative viability ([8]; first compound 0.01 µM): 0.836
relative viability ([8]; first compound 0.03162 µM): 0.848
relative viability ([8]; first compound 0.1 µM): 0.889
relative viability ([8]; first compound 0.3162 µM): 1.12
relative viability ([8]; first compound 1 µM): 0.727
relative viability ([9]; first compound 0.03162 µM): 1.14
relative viability ([9]; first compound 0.1 µM): 1.3
relative viability ([9]; first compound 0.3162 µM): 1.16
relative viability ([9]; first compound 1 µM): 1.07
relative viability ([10]; first compound 0.01 µM): 0.684
relative viability ([10]; first compound 0.03162 µM): 0.676
relative viability ([10]; first compound 0.1 µM): 0.776
relative viability ([10]; first compound 0.3162 µM): 0.818
relative viability ([10]; first compound 1 µM): 0.601
relative viability ([11]; first compound 0.01 µM): 0.199
relative viability ([11]; first compound 0.1 µM): 0.36
relative viability ([11]; first compound 0.3162 µM): 0.188
relative viability ([11]; first compound 1 µM): 0.198
relative viability ([12]; first compound 0.01 µM): 0.222
relative viability ([12]; first compound 0.03162 µM): 0.249
relative viability ([12]; first compound 0.1 µM): 0.217
relative viability ([12]; first compound 0.3162 µM): 0.236
relative viability ([12]; first compound 1 µM): 0.196
relative viability ([13]; first compound 0.01 µM): 0.926
relative viability ([13]; first compound 0.03162 µM): 0.843
relative viability ([13]; first compound 0.1 µM): 0.824
relative viability ([13]; first compound 0.3162 µM): 0.83
relative viability ([13]; first compound 1 µM): 0.705
relative viability ([14]; first compound 0.01 µM): 0.394
relative viability ([14]; first compound 0.03162 µM): 0.647
relative viability ([14]; first compound 0.1 µM): 0.726
relative viability ([14]; first compound 0.3162 µM): 0.745
relative viability ([14]; first compound 1 µM): 0.549
relative viability ([15]; first compound 0.01 µM): 0.885
relative viability ([15]; first compound 0.03162 µM): 0.927
relative viability ([15]; first compound 0.1 µM): 0.956
relative viability ([15]; first compound 0.3162 µM): 0.878
relative viability ([15]; first compound 1 µM): 0.853
relative viability ([16]; first compound 0.01 µM): 0.976
relative viability ([16]; first compound 0.03162 µM): 1
relative viability ([16]; first compound 0.1 µM): 1.15
relative viability ([16]; first compound 0.3162 µM): 1.13
relative viability ([16]; first compound 1 µM): 1.01
relative viability ([17]; first compound 0.01 µM): 1.07
relative viability ([17]; first compound 0.03162 µM): 1.18
relative viability ([17]; first compound 0.1 µM): 1.16
relative viability ([17]; first compound 0.3162 µM): 0.946
relative viability ([17]; first compound 1 µM): 0.956
relative viability ([18]; first compound 0.01 µM): 0.352
relative viability ([18]; first compound 0.03162 µM): 0.347
relative viability ([18]; first compound 0.1 µM): 0.568
relative viability ([18]; first compound 0.3162 µM): 0.497
relative viability ([18]; first compound 1 µM): 0.316
relative viability ([19]; first compound 0.01 µM): 0.792
relative viability ([19]; first compound 0.03162 µM): 0.734
relative viability ([19]; first compound 0.1 µM): 0.812
relative viability ([19]; first compound 0.3162 µM): 0.803
relative viability ([19]; first compound 1 µM): 0.628
relative viability ([20]; first compound 0.01 µM): 0.646
relative viability ([20]; first compound 0.03162 µM): 0.637
relative viability ([20]; first compound 0.1 µM): 0.626
relative viability ([20]; first compound 0.3162 µM): 0.538
relative viability ([20]; first compound 1 µM): 0.388
